molecular target: T1, cloned human CCR8 receptor stably expressed in L1.2 cells (Homo sapiens, UniProt P51685); experiment: whole cell binding screen: inhibition of biotinylated human I309 binding to CCR8 (FMAT 8100 HTS); conditions: Ki of compounds to inhibit I-309 binding to CCR8, L1.2/hCCR8 cells, biotinylated human I-309, 10 point concentration response starting at 10 μM
T1 construct: expressed in transfected cells
Method in brief: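 L1.2 murine pre-B cells stably expressing human CCR8 (4.0×10^5 cells/mL) in HBSS/HEPES/fatty-acid-free BSA/azide buffer were mixed with biotinylated human I309 and compounds for 0.5 h, read by FMAT fluorescence. 10-point curves from 10 μM final; percent inhibition normalized to no-inhibitor and 100 nM unlabeled I309 controls.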

T1 sequence (P51685 whole entry): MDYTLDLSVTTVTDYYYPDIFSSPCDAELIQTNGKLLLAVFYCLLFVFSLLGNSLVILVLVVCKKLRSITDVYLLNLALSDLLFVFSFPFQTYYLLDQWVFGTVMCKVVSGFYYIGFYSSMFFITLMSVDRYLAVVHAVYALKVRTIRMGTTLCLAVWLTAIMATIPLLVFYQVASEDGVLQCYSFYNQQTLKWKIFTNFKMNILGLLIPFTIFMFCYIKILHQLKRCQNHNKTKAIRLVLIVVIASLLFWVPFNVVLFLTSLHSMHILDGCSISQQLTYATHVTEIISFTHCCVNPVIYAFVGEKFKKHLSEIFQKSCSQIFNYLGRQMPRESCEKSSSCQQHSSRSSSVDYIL

With `CCCC(=O)N1CCC(NS(=O)(=O)c2ccc(NC(=O)C3CCCCC3)c3ccccc23)CC1` [Compound D-16, Cyclohexanecarboxylic acid [4-(1-butyryl-piperidin-4-ylsulfamoyl)-naphthalen-1-yl]-amide] as the compound, how does the Ki read?
The Ki was < 500 nM.

With `CC(=O)N1CCC(NS(=O)(=O)c2ccc(NC(=O)c3ccccc3C)c3ccccc23)CC1` [Compound C-49, N-[4-(1-Acetyl-piperidin-4-ylsulfamoyl)-naphthalen-1-yl]-2-methyl-benzamide] as the compound, how does the Ki read?
The Ki was < 500 nM.

How did the Ki turn out when `CCNC(=O)N1CCC(NS(=O)(=O)c2ccc(NC(=O)c3ccccc3C)c3ccccc23)CC1` [Compound C-34, 4-[4-(2-Methyl-benzoylamino)-naphthalene-1-sulfonylamino]-piperidine-1-carboxylic acid ethylamide] was run?
Its Ki is < 500 nM.

How did the Ki turn out when `O=C(Nc1ccc(S(=O)(=O)NC2CCCCC2)c2ccccc12)c1ccccc1` [Compound A-10, N-(4-Cyclohexylsulfamoyl-naphthalen-1-yl)-benzamide] was run?
Its Ki is < 1000 nM.

same assay, conditions: L1.2/hCCR8 cells, biotinylated human I-309, 10 point concentration response starting at 10 μM; read-out: Ki of compounds to inhibit I-309 binding to CCR8

For `Cc1ccccc1C(=O)Nc1ccc(S(=O)(=O)NC2CCN(C(=O)OC(C)(C)C)CC2)c2c1CCC2` [Compound H-66, 4-[7-(2-Methyl-benzoylamino)-indane-4-sulfonylamino]-piperidine-1-carboxylic acid tert-butyl ester], which Ki is on record?
The Ki was < 1000 nM.

`CCOC(=O)N1CCC(NS(=O)(=O)c2ccc(NC(=O)c3ccccc3C)c3c2CCCC3)C1` (racemic) [Compound E-33, (±)-3-[4-(2-Methyl-benzoylamino)-5,6,7,8-tetrahydro-naphthalene-1-sulfonylamino]-pyrrolidine-1-carboxylic acid ethyl ester] was tested. Which Ki did it give?
Its Ki is < 500 nM.

For `O=C(Nc1ccc(S(=O)(=O)Nc2cccnc2)c2ccccc12)c1ccccc1` [Compound A-16, N-[4-(Pyridin-3-ylsulfamoyl)-naphthalen-1-yl]-benzamide], which Ki is on record?
The Ki was < 30000 nM.

With `O=C(Nc1ccc(S(=O)(=O)NC2CCNCC2)c2ccccc12)C1CC1` [Compound D-12, Cyclopropanecarboxylic acid [4-(piperidin-4-ylsulfamoyl)-naphthalen-1-yl]-amide] as the compound, how does the Ki read?
The Ki was < 30000 nM.

For `Cc1ccccc1C(=O)Nc1ccc(S(=O)(=O)NC2CCN(C(=O)[C@@H]3CCCN3C)CC2)c2ccccc12` [Compound C-124, (S)-2-Methyl-N-{4-[1-(1-methyl-pyrrolidine-2-carbonyl)-piperidin-4-ylsulfamoyl]-naphthalen-1-yl}-benzamide], which Ki is on record?
The Ki was < 500 nM.

For `CCOC(=O)N1CCC(NS(=O)(=O)c2cccc3c(C(=O)Nc4ccccc4Cl)cccc23)CC1` [Compound H-34, 4-[5-(2-chloro-phenylcarbamoyl)-naphthalene-1-sulfonylamino]-piperidine-1-carboxylic acid ethyl ester], which Ki is on record?
Its Ki is < 500 nM.

For `O=C(Nc1ccc(S(=O)(=O)NC2CCNCC2)c2ccccc12)c1c(F)cccc1C(F)(F)F` [Compound C-107, 2-Fluoro-N-[4-(piperidin-4-ylsulfamoyl)-naphthalen-1-yl]-6-trifluoromethyl-benzamide], which Ki is on record?
The Ki was < 30000 nM.

Which Ki does the source give for `CCOC(=O)N1CC[C@H](NS(=O)(=O)c2ccc(N)c3ccccc23)[C@H](C)C1` (racemic) [Compound D-2, (±)-(cis)4-(4-amino-naphthalene-1-sulfonylamino)-3-methyl-piperidine-1-carboxylic acid ethyl ester] here?
Its Ki is < 30000 nM.

`Cc1ccccc1C(=O)Nc1ccc(S(=O)(=O)NC2CCN(C(=O)CN(C)C)CC2)c2ccccc12` [Compound C-55, N-{4-[1-(2-Dimethylamino-acetl)-piperidin-4-ylsulfamoyl]-naphthalen-1-yl}-2-methyl-benzamide] was tested. Which Ki did it give?
The Ki was < 500 nM.

With `CCOC(=O)N1CCC(NS(=O)(=O)c2ccc(NC(=O)c3cc(C)ccc3C)c3ccccc23)CC1` [Compound B-28, 4-[4-(2,5-Dimethyl-benzoylamino)-naphthalene-1-sulfonylamino]-piperidine-1-carboxylic acid ethyl ester] as the compound, how does the Ki read?
The Ki was < 500 nM.

For `CCCC(=O)N1C[C@H](C)C(NS(=O)(=O)c2ccc(NC(=O)c3ccccc3C)c3ccccc23)[C@@H](C)C1` (racemic) [Compound C-66, (±)-(cistrans)-N-[4-(1-Butyryl-3,5-dimethyl-piperidin-4-ylsulfamoyl)-naphthalen-1-yl]-2-methyl-benzamide], which Ki is on record?
Its Ki is < 500 nM.

Which Ki does the source give for `CCC(=O)N1CCC(NS(=O)(=O)c2ccc(NC(=O)c3ccccc3OC)c3ccccc23)CC1` [Compound C-102, 2-Methoxy-N-[4-(1-propionyl-piperidin-4-ylsulfamoyl)-naphthalen-1-yl]-benzamide] here?
Its Ki is < 500 nM.

`Cc1ccccc1C(=O)Nc1ccc(S(=O)(=O)N[C@@H]2CCN(Cc3ccccc3)C[C@H]2C)c2ccccc12` (racemic) [Compound A-23, (±)-trans-N-[4-(1-Benzyl-3-methyl-piperidin-4-ylsulfamoyl)-naphthalen-1-yl]-2-methyl-benzamide] was tested. Which Ki did it give?
Its Ki is < 500 nM.

With `Cc1ccccc1C(=O)Nc1ccc(S(=O)(=O)NC2CCNC2)c2c1CCCC2` (racemic) [Compound E-29, (±)-2-Methyl-N-[4-(pyrrolidin-3-ylsulfamoyl)-5,6,7,8-tetrahydro-naphthalen-1-yl]-benzamide] as the compound, how does the Ki read?
Its Ki is < 500 nM.

With `O=C(Nc1ccc(S(=O)(=O)Nc2ccc(-c3ccccc3)cc2)c2ccccc12)c1ccccc1` [Compound A-29] as the compound, how does the Ki read?
Its Ki is < 30000 nM.

For `Cc1ccccc1C(=O)Nc1ccc(S(=O)(=O)NC2CCNC2)c2ccccc12` (racemic) [Compound C-48, (±)-2-Methyl-N-[4-(pyrrolidin-3-ylsulfamoyl)-naphthalen-1-yl]-benzamide], which Ki is on record?
Its Ki is < 500 nM.

How did the Ki turn out when `CCOC(=O)N1CCC(NS(=O)(=O)c2cccc3c(C(=O)Nc4ccccc4C)cccc23)CC1` [Compound H-28, 4-(5-o-Tolylcarbamoyl-naphthalene-1-sulfonylamino)-piperidine-1-carboxylic acid ethyl ester] was run?
Its Ki is < 500 nM.

With `Cc1ccccc1C(=O)Nc1ccc(S(=O)(=O)NCC2CCCCC2)c2c1CCCC2` [Compound E-27, N-[4-(Cyclohexylmethyl-sulfamoyl)-5,6,7,8-tetrahydro-naphthalen-1-yl]-2-methyl-benzamide] as the compound, how does the Ki read?
Its Ki is < 500 nM.

`CCOC(=O)N1CCC(NS(=O)(=O)c2ccc(NC(=O)c3ccccc3C)c3ccccc23)C(C)(C)C1` (racemic) [Compound C-20, (±)-3,3-Dimethyl-4-[4-(2-methyl-benzoylamino)-naphthalene-1-sulfonylamino]-piperidine-1-carboxylic acid ethyl ester] was tested. Which Ki did it give?
The Ki was < 500 nM.

With `Cc1cccc(NC(=O)c2cccc3c(S(=O)(=O)NC4CCN(C(=O)N(C)C)CC4)cccc23)c1C` [Compound H-38, 4-[5-(2,3-Dimethyl-phenylcarbamoyl)-naphthalene-1-sulfonylamino]-piperidine-1-carboxylic acid dimethylamide] as the compound, how does the Ki read?
The Ki was < 500 nM.

For `CCOC(=O)N1CC[C@H](NS(=O)(=O)c2ccc(NC(=O)c3ccccc3C)c3ccccc23)[C@@H](C)C1` (racemic) [Compound C-17, (±)-trans-3-Methyl-4-[4-(2-methyl-benzoylamino)-naphthalene-1-sulfonylaminno]-piperidine-1-carboxylic acid ethyl ester], which Ki is on record?
The Ki was < 500 nM.

Which Ki does the source give for `CCOC(=O)c1ccc(NS(=O)(=O)c2cccc3c(NC(=O)c4ccccc4C)cccc23)cc1` [Compound H-19, 4-[5-(2-Methyl-benzoylamino)-naphthalene-1-sulfonylamino]-benzoic acid ethyl ester] here?
Its Ki is < 30000 nM.

`O=C(Nc1ccc(S(=O)(=O)NC2CCCCC2)c2c1CCCC2)C1CCCCC1` [Compound E-5, Cyclohexanecarboxylic acid (4-cyclohexylsuffamoyl-5,6,7,8-tetrahydro-naphthalen-1-yl)-amide] was tested. Which Ki did it give?
The Ki was < 500 nM.

How did the Ki turn out when `CCCC(=O)N1CCC(NS(=O)(=O)c2cc3c(c(NC(=O)c4ccccc4Cl)c2)CCCC3)CC1` [Compound H-63, N-[3-(1-Butyryl-piperidin-4-ylsulfamoyl)-5,6,7,8-tetrahydro-naphthalen-1-yl]-2-chloro-benzamide] was run?
Its Ki is < 30000 nM.

With `Cc1ccccc1C(=O)Nc1cccc2c(S(=O)(=O)NC3CCN(C(=O)N4CCOCC4)CC3)cccc12` [Compound H-11, 2-Methyl-N-{5-[1-(morpholine-4-carbonyl)-piperidin-4-ylsulfamoyl]-naphthalen-1-yl}-benzamide] as the compound, how does the Ki read?
The Ki was < 500 nM.

For `Cc1ccccc1C(=O)Nc1ccc(S(=O)(=O)NC2CCN(C(=O)OC(C)(C)C)CC2(C)C)c2ccccc12` (racemic) [Compound A-19, (±)-3,3-Dimethyl-4-[4-(2-methyl-benzoylamino)-naphthalene-0-sulfonylamino]-piperidine-1-carboxylic acid tert-butyl ester], which Ki is on record?
The Ki was < 500 nM.

`O=C(Nc1ccc(S(=O)(=O)NC2CCNCC2)c2ccccc12)c1ccccc1F` [Compound C-99, 2-Fluoro-N-[4-(piperidin-4-ylsulfamoyl)-naphthalen-1-yl]-benzamide] was tested. Which Ki did it give?
Its Ki is < 500 nM.

How did the Ki turn out when `CC1CCCCC1NC(=O)c1cccc2c(S(=O)(=O)NC3CCN(C(=O)N(C)C)CC3)cccc12` (racemic) [Compound H-33, (±)-4-[5-(2-Methyl-cyclohexylcarbamoyl)-naphthalene-1-sulfonylamino]-piperidine-1-carboxylic acid dimethylamide] was run?
The Ki was < 500 nM.

Which Ki does the source give for `CCCC(=O)N1CCC(NS(=O)(=O)c2ccc(NC(=O)C3CC3)c3ccccc23)CC1` [Compound D-15, Cyclopropanecarboxylic acid [4-(1-butyryl-piperidin-4-ylsulfamoyl)-naphthalen-1-yl]-amide] here?
Its Ki is < 500 nM.

With `CCOC(=O)N1CCC(NS(=O)(=O)c2ccc(CNC(=O)c3cccc(C)c3C)c3ccccc23)CC1` [Compound G-2, 4-{4-[(2,3-Dimethyl-benzoylamino)-methyl]-naphthalene-1-sulfonylamino}-piperidine-1-carboxylic acid ethyl ester] as the compound, how does the Ki read?
Its Ki is < 500 nM.

From patent publication US7491827B2, “Aryl sulfonamides useful as inhibitors of chemokine receptor activity” (Millennium Pharmaceuticals, Inc., priority 2003, dated 2009)
